What was measured:
tauK18 [1] = target: T1, tauK18 (Homo sapiens, UniProt P10636); assay: TauK18 oligomerization assay in vitro (SDS-PAGE); assay type: biochemical; settings: 100 μM, 5 h, nonreducing SDS-PAGE; DMSO control 50 ± 1.1%
T1 construct: under in vitro conditions using a purified tauK18 fragment; 6xHis; made in house; host or cells: E. coli BL21 (DE3)
Method: To induce tau oligomerization, tauK18 (0.5 mg/mL dissolved in PBS, pH 7.4) was incubated with each drug in the presence of DTT (100 μM) and heparin (0.1 mg/mL) at RT for 5 h with vigorous shaking. Then, tau oligomers were separated on 4–20% SDS‒PAGE gels under reducing and nonreducing conditions and visualized by Coomassie blue staining.

tau [2] = target: T2, tau (Homo sapiens, UniProt P10636); assay: Tau immunoblot of tau-BiFC cell lysates (reducing and nonreducing SDS-PAGE); settings: 5 μM, tauK18^P301L-activated tau-BiFC cells
Method: For reducing SDS‒PAGE analysis, cell or brain lysates were mixed with 4x Laemmli buffer containing 10% β-mercaptoethanol (BME) and boiled at 97 °C for 5 min. For nonreducing SDS‒PAGE analysis, cell or brain lysates were mixed with 4x Laemmli buffer without BME. For immunoblot analysis, 10 μg of each lysate was separated on a 10% SDS–PAGE gel and transferred to a PVDF membrane. The levels of total tau and phosphorylated tau were detected by anti-tau antibodies against 2B11 (IBL), Tau5 (Abcam), pSer199 (Abcam), pSer396 (Abcam), and pThr205 (Abcam). […] Band intensity was quantified using ImageJ software (NIH). All data were normalized to β-actin.

Tau-BiFC cells = assay: Flow cytometry analysis of tau-BiFC cells; assay type: cell-based, human; settings: drug 5 μM with tauK18^P301L
Method: After 24 h, BiFC cells were collected and subjected to flow cytometry analysis using a BD FACSLyric^TM cytometer (BD Biosciences). A total of 50,000 events were acquired per sample. All samples were gated using the same gating tree and gate positions: side scatter area (SSC-A) vs. forward scatter area (FSC-A) for viable and singlet cell populations. BiFC fluorescence was excited by a 488 nm wave laser and collected through a 527/32 bandpass filter.

[3] = tested on: primary hippocampal neurons; assay: NeuO staining, number of neurons and neurite lengths; assay type: cell-based; settings: 3 μM, tauK18^P301L, 48 h
Method: (§1) Primary hippocampal neurons were isolated from Day 18 embryonic Sprague‒Dawley rat brains as described previously. The neurons were seeded at a density of 3.5 × 10^5 cells per well on a poly-D-lysine-coated 6-well plate and maintained in neurobasal medium at 37 °C in a humidified atmosphere of 5% CO2. The neurobasal medium contained 2% B27 supplement, 0.5 mM GlutaMAX, 100 units/mL penicillin, and 100 μg/mL streptomycin. Every 3 days, 50% of the medium was replaced with fresh neurobasal medium. At DIV10, neurons were incubated with MB, LMTM (3 µM), or levosimendan (10 µM) in the presence of tauK18^P301L (10 µg/mL) for 48 h.
At DIV10, neurons grown on a 96-well plate were treated with MB, LMTM (3 µM), or levosimendan (10 µM) followed by tauK18^P301L activation. After 48 h, the neurons were stained with NueO (50 nM), a neuron-selective probe. NeuO fluorescence (λex = 460–490 nm and λem = 518–580 nm) images were acquired by using Operetta® (PerkinElmer). The number of neurons and total lengths of neurites were quantified by Harmony 3.1 software (PerkinElmer). Error bars represent the standard deviations (S.D.) of four replicate experiments.

[4] = Cell viability of tau-BiFC cells (number of nuclei); assay type: cell-based, human; settings: human, HEK293 Tau-BiFC cells, 48 h of treatment
Method: HEK293 Tau-BiFC cells were maintained in Dulbecco’s modified Eagle medium (DMEM) supplemented with 10% fetal bovine serum (FBS), 100 units/mL penicillin, 100 µg/mL streptomycin and 100 µg/mL Geneticin (G418) in a humidified atmosphere containing 5% CO2 at 37 °C. Tau-BiFC cells were activated by treatment with FK (30 μM) or tauK18^P301L (5 μg/mL).
For screening of FDA-approved & Passed Phase I Drug Library, tau-BiFC cells were plated on µ-clear 384-well plates. The next day, the cells were cotreated with forskolin and 1,018 library compounds at a concentration of 10 µM. MB and LMTM (3 µM) were used as positive controls. After 46 h, nuclei were counterstained with Hoechst (Invitrogen). BiFC (λex = 460–490 nm and λem = 500–550 nm) and Hoechst (λex = 355–385 nm and λem = 430–500 nm) fluorescence images were acquired automatically by using Operetta® (PerkinElmer). BiFC fluorescence intensity and the number of nuclei were quantified using Harmony 3.1 software (PerkinElmer). Integrated tau-BiFC intensity represents the area of selected cell X mean fluorescence intensity. The means and standard deviations (S.D.) of BiFC fluorescence intensities and the number of nuclei were plotted using GraphPad Prism.

tau [5] = assay: Tau immunoblot of primary hippocampal neuron lysates; assay type: cell-based, rat; settings: 3 μM, nonreducing SDS-PAGE, primary neurons, tauK18^P301L; control 1.8 ± 0.3-fold
Method: Band intensity was quantified using ImageJ software (NIH). All data were normalized to β-actin.
as §1

tauK18 [6] = target: T1, tauK18; assay: In vitro tau aggregation assay (thioflavin S); assay type: biochemical; settings: heparin-induced, 5 days
Method: To evaluate the inhibitory effect of drugs on tau aggregation, tauK18 protein (0.5 mg/mL) was incubated with each drug at various concentrations in the presence of DTT (100 μM) and heparin (0.1 mg/mL) at 37 °C for 5 days with vigorous shaking (220 rpm). For the tau disaggregation assay, the preformed aggregation mixture of tauK18 was incubated with each drug at 37 °C for 4 days with vigorous shaking (220 rpm). On the final day of incubation, the level of β-sheet aggregates was evaluated by thioflavin S (ThS) assay. For the ThS assay, 5 μL of each mixture was transferred to a black 384-well plate with 45 μL of PBS containing 10 μM ThS. ThS fluorescence (λex = 430 nm, and λem = 500 nm) was measured by using a Flexstation2 spectrophotometer (Molecular Devices).

tau [7] = target: T2, tau; assay: Tau-BiFC response in tau-BiFC cells (high-content imaging); assay type: cell-based; parameters: expressed in transfected cells; host or cells: HEK293 Tau-BiFC cells (G418-selected); settings: 100 μM, 48 h, tauK18^P301L
tau cysteines = target: T3, tau cysteines (Homo sapiens, UniProt P10636); assay: Covalent binding to tau (14C autoradiography, MALDI-TOF of R1-R4 peptides); settings: 720 μM with tauK18 72 μM, 2 h, RT
T3 construct: 6xHis; made in house; host or cells: E. coli BL21 (DE3)
Method: TauK18 (1 mg/mL, 72 μM) was incubated with ^14C-levosimendan (720 μM) in PBS containing 5% DMSO at RT for 2 h. Then, the mixture was separated on a 15% SDS–PAGE gel under nonreducing conditions and stained with Coomassie blue. For autoradiography, the SDS–PAGE gel was transferred to a PVDF membrane and scanned by Typhoon FLA 7000 IP (GE Healthcare).
Each repeat domain (R1, R2, R3, R4, R2-C291S or R3-C322S, 150 μM) was incubated with levosimendan (molar ratio 1:10 of a tau repeat domain: levosimendan) at RT for 37 h. The samples were mixed with matrix solution (10 mg mL^−1 sinapinic acid in 0.1% (v/v) trifluoroacetic acid/CAN) at a ratio of 1:1. The mixtures were directly spotted onto the MALDI target and dried. Mass spectra were acquired in reflection/linear positive ion mode in the m/z range of 2000–100,000 using an Ultraflex III TOF/TOF mass spectrometer controlled by Flex Control 3.0 (Bruker Daltonics). The default operating conditions were as follows: ion source 1, 25.0 kV; ion source 2, 23.0 kV; lens voltage, 6.0 kV; laser repetition rate = 100 Hz. All spectra were generated automatically in the instrument software and based on averaging 1000 shots from 10 nonoverlapping positions (100 shots/position).

tauK18 fragment = assay: non-reducing SDS-PAGE with Coomassie staining (disulfide-linked oligomers); tauK18 0.5 mg/mL in PBS pH 7.4 with DTT (100 uM) and heparin (0.1 mg/mL), RT, 5 h, shaking; 4-20% gel; DMSO control, MB, LMTM or levosimendan (10, 30, 100 uM)

T2 sequence (P10636 1-441 isoform P10636-8): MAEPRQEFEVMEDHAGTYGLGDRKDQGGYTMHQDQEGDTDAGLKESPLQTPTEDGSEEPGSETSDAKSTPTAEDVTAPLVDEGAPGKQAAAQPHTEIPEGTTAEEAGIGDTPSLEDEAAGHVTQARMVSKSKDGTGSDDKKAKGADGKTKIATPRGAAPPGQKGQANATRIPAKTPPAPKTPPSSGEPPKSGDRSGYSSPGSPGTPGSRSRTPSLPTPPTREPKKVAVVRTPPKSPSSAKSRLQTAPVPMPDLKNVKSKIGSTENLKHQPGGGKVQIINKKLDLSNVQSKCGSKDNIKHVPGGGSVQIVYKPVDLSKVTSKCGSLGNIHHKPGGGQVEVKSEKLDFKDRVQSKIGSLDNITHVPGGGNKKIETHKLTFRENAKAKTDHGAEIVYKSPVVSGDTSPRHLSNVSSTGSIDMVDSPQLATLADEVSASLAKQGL
T2 sequence (P10636 1-441 isoform P10636-8): as above
T1 sequence (P10636 561-685 limits assumed): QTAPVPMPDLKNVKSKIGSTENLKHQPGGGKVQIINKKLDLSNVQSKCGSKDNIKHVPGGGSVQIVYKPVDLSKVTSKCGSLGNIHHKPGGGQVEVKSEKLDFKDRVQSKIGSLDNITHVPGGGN
T3 sequence (P10636 561-689 limits assumed): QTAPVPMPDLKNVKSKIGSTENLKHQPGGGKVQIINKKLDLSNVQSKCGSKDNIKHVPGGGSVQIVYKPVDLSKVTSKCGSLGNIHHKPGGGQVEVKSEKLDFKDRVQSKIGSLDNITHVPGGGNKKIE

CN(C)c1ccc2nc3ccc(=[N+](C)C)cc-3sc2c1 [MB, methylene blue]
Level of disulfide-linked tau oligomers (of total tau) (tauK18 [1]): 77.6 ± 2.0%
Level of disulfide-linked tau oligomers compared to basal (tau [2]; nonreducing SDS-PAGE, control 2.4 ± 0.4-fold): 1.6 ± 0.3 fold
Level of pS199-positive monomers compared to basal (tau [2]; reducing gel): 0.2 ± 0.1 fold
Level of pS199-positive oligomers compared to basal (tau [2]; reducing gel): 0.4 ± 0.2 fold
Level of pT205-positive monomers compared to basal (tau [2]; reducing gel): 0.1 ± 0.1 fold
Level of pT205-positive oligomers compared to basal (tau [2]; reducing gel): 0.7 ± 0.3 fold
P1: intact cell population out of total cells (Tau-BiFC cells; 24 h): 13.7%
Median BiFC fluorescence intensity of BiFC-responding cells (Tau-BiFC cells; BiFC^ON control […] ± 62, basal 332 ± 110): 648 ± 49
Number of NeuO-stained live neurons ([3]; basal 1925 ± 66, control 943 ± 30): 986 ± 150 neurons
Neurite length ([3]; control 142.8 ± 17.8 μm): did not show a significant effect on neuronal integrity
GI50 at 48 h ([4]; Tau-BiFC^ON by forskolin (30 μM)): 6.2 ± 0.4 µM
GI50 at 48 h ([4]; Tau-BiFC^ON by tauK18^P301L (5 μg/mL)): 7.1 ± 0.3 µM
Level of disulfide-linked tau oligomers compared to basal (tau [5]): 2.3 ± 0.5 fold

C[C@@H]1CC(=O)NN=C1c1ccc(N)cc1 [OR-1855]
Inhibition of tau aggregation in vitro (ThS response) (tauK18 [6]): did not inhibit tau aggregation in vitro
Inhibition of tau-BiFC fluorescence increase (tau [7]): did not inhibit the tau-BiFC fluorescence increase

CC(=O)Nc1ccc(C2=NNC(=O)C[C@H]2C)cc1 [OR-1896]
Inhibition of tau aggregation in vitro (ThS response) (tauK18 [6]): did not inhibit tau aggregation in vitro
Inhibition of tau-BiFC fluorescence increase (tau [7]): did not inhibit the tau-BiFC fluorescence increase

CC1CC(=O)NN=C1c1ccc(NN=C(C#N)[14C]#N)cc1 (stereo not shown) [^14C-levosimendan]
Covalent labeling of tau on nonreducing SDS-PAGE (14C-radiography) (tau cysteines): covalent attachment to tau

tauK18 fragment (domain or fragment)
percent of total tau as disulfide-linked oligomers (DMSO control) (tauK18 fragment): 50%

From article PMC10073126, “Levosimendan inhibits disulfide tau oligomerization and ameliorates tau pathology in Tau^P301L-BiFC mice” (Experimental & Molecular Medicine, 2023)
